Earlier results in patent US11291679B1, “Injectable, infusable, instillable ivermectin adjuvant for cancer therapies” (MOUNTAIN VALLEY MD INC., priority 2021, dated 2022).

| variability of cmax in blood plasma levels (blood plasma) | variation across the concentrations in the tumor environment (tumor environment) | Compound | immunogenic cancer cell death and T cell infiltration (breast tumors) | efficacy in vivo (limiting tumor growth) (breast tumors; single agent or combination, synergy p=0.03) |
| --- | --- | --- | --- | --- |
|  |  | ivermectin | induces immunogenic cancer cell death (ICD) and robust T cell infiltration into breast tumors | neither agent alone showed efficacy in vivo |
| 4-5 fold | ~15 fold | CCC(C)n1ncn(-c2ccc(N3CCN(c4ccc(OCC5COC(Cn6cncn6)(c6ccc(Cl)cc6Cl)O5)cc4)CC3)cc2)c1=O (stereo not shown) [itraconazole] |  |  |
